Measurements as given in patent US20240165170A1, “USE OF LACTIC ACID BACTERIUM SET FOR PREVENTING OR TREATING NSAID-INDUCED GASTRIC ULCER” (GRAPE KING BIO LTD., priority 2022, published 2024).
“And” between values parts separate entries of the source, which are not always exact repeats. Equal values may be shown once.

Tests used:
[1] = body weight change of mice during the test; format: in vivo; details: between groups in the same period, p>0.05
Procedure: (§1) 24 mice were divided into a blank control group, a negative control group, a positive control group and a lactic acid bacteria test group, and there were 6 mice in each group. The mice were administered once a day for 39 consecutive days. The blank control group and the negative control group were given drinking water, the positive control group was given 20 mg/kg Omeprazole, and the lactic acid bacteria test group was given GKD7 and GKA4 freeze-dried powder, each 10.2 mg/kg/day. On day 29, 500 mg/kg aspirin was administered to the negative control group, positive control group and lactic acid bacteria test group to induce gastric ulcer (the blank control group was not administered) for 10 days (D29-D39), and finally the mice were sacrificed on D40 and performed various analyses.
(§2) The body weight of the mice was recorded every week, and after 39 consecutive days of administration, the mice were sacrificed with a high dose of Sutai 50 on the 40th day. The appearance, stomach tissues and organs of the mice were observed and made records.

ICR male mice = test: aspirin-induced gastric ulcer test in ICR mice (ulcer area, ulcer index, cure rate, mucosal ulcer pathology); format: in vivo; design: key to Mucosal ulcer (pathological indicator, score per mouse): Grade 0 represents no ulcers occurred in normal tissue; Grade 1 represents less than ⅓ of superficial ulcer lesions in gastric mucosa; Grade 2 represents about ½ of superficial to middle ulcer lesions in gastric mucosa; Grade 3 represents about ⅔ of superficial to deep ulcer lesions in gastric mucosa; grade 4 represents gastric mucosal epithelial full-thickness ulcer and the lesion penetrates 3/3 of the muscle layer
Procedure: A total of 24 ICR male mice purchased from BioLASCO (Lesco Biotechnology) were used as the experimental animals, each about 25 grams. The mice were kept in a general mouse cage, the room temperature was maintained at 22±3° C., the humidity was 55±15%, and the light and darkness were regularly 12 hours (12 hr light-dark cycle). Feed and sterile reverse osmosis water was allowed to be eaten by mice freely. Newly imported animals need to be observed for 3-5 days to ensure that there is no abnormality before testing. Before the experiment, the ICR mice were randomly grouped and caged, and each ICR mouse was marked with an ear number for identification and recording.
as §1, §2
Ulcer area statistics: ImageJ software was utilized to circle the ulcer focus of gastric tissue to calculate the gastric ulcer focus area of each ICR mouse. Each ulcer focus can get different scores according to the size of the ulcer (see the table below):
After each ulcer focus score is obtained, the application calculates the ulcer index of the mouse according to the following formula 1, and the higher the ulcer index, the more severe the ulcer.
If the experimental group mice (positive control group, lactic acid bacteria test group) are compared with the negative control group mice and the area of gastric ulcer (ulcer index) is reduced, it means that the experimental group produces a healing effect. Dividing the ulcer index of the experimental group by the ulcer index of the negative control group obtains the ulcer improvement rate, which is then subtracted from 1 to get the healing rate (cure rate) compared with the negative control group. The calculation method is shown as the following formula 2: […]

Question: What does the source list for `COc1ccc2[nH]c([S+]([O-])Cc3ncc(C)c(OC)c3C)nc2c1` (centres unmarked) [Omeprazole]?
Answer: body weight of mice during the test [1]: no significant difference; ulcer area (ICR male mice; ICR mice, once daily for 39 days, 500 mg/kg aspirin D29-D39, sacrificed D40, 6 mice per group): 7.12±2.15 mm^2; ulcer index (ICR male mice; ICR mice, once daily for 39 days, 500 mg/kg aspirin D29-D39, formula 1, higher index = more severe ulcer): 2.57±0.67; Cure rate (%) (ICR male mice; formula 2: 1 minus ulcer index of group / ulcer index of negative control group): 53.25%; Mucosal ulcer (pathological indicator, score per mouse) (ICR male mice; stomach histopathology, individual mice, grade 0-4, higher score = more serious damage, listed as Positive control group): 0 and 1
